Source: US9689841B2, “Fluorescent pI markers for isoelectric focusing separations and fluorescent labeling” (The Texas A&M University System, priority 2011, dated 2017)
Like-named read-outs stand apart in the source and are kept apart here.

What was measured:
[1] = physchem
[2] = from the two pKa values
[3] = cited from earlier work
[4] = first (lower) of the two pKa values
[5] = second (higher) of the two pKa values

| SMILES | pKa [1] | pI [2] | pKa [3, 4] | pKa [3, 5] |
| --- | --- | --- | --- | --- |
| O=C(O)c1cccnc1 [pyridine-3-carboxylic acid] | 1.3 | 3.365 |  |  |
| O=C(O)c1ccncc1 [pyridine-4-carboxylic acid] | 1.54 | 3.34 | 1.8 | 4.88 |
| O=C(O)c1ccc(C(=O)O)cc1 [1,4-benzenedicarboxylic acid] |  |  | 3.60 | 4.50 |
| O=C(O)c1ccccc1C(=O)O [1,2-benzenedicarboxylic acid] |  |  | 2.76 | 4.92 |
| O=C(O)c1ccccn1 [pyridine-2-carboxylic acid] | 2.1 | 3.105 |  |  |
